Results taken from PubChem BioAssay AID1259407 (Chemical Carcinogenesis Research Information System (CCRIS), 2018).
Activity calls are given as the source filed them. The rule behind the calls is not given here.

Test system: CCRIS mutagenicity, Ames/micronucleus/aberration tests
Assay: CCRIS mutagenicity studies
[1] = Test System: AMES SALMONELLA TYPHIMURIUM, Strain/Indicator: TA98, Metabolic Activation: NONE, Method: PREINCUBATION
[2] = Test System: AMES SALMONELLA TYPHIMURIUM, Strain/Indicator: TA100, Metabolic Activation: NONE, Method: PREINCUBATION
[3] = Test System: AMES SALMONELLA TYPHIMURIUM, Strain/Indicator: TA100, Metabolic Activation: RAT, LIVER, S-9, AROCLOR 1254, Method: PREINCUBATION
[4] = Test System: AMES SALMONELLA TYPHIMURIUM, Strain/Indicator: TA98, Metabolic Activation: NONE, Method: STANDARD PLATE
[5] = Test System: AMES SALMONELLA TYPHIMURIUM, Strain/Indicator: TA100, Metabolic Activation: NONE, Method: STANDARD PLATE

Nc1nc(-c2ccc([N+](=O)[O-])cc2)nc2c1ncn2[C@H]1C[C@H](O)[C@@H](CO)O1
mutagenic call (Test System: AMES SALMONELLA TYPHIMURIUM, Strain/Indicator: TA98(1,8-DNP), Metabolic Activation: NONE, Method: PREINCUBATION): active; positive
mutagenic call (Test System: AMES SALMONELLA TYPHIMURIUM, Strain/Indicator: TA98(1,8-DNP), Metabolic Activation: RAT, LIVER, S-9, PCB, Method: PREINCUBATION): active; positive
mutagenic call (Test System: AMES SALMONELLA TYPHIMURIUM, Strain/Indicator: TA98(NR), Metabolic Activation: NONE, Method: PREINCUBATION): active; positive
mutagenic call (Test System: AMES SALMONELLA TYPHIMURIUM, Strain/Indicator: TA98(NR), Metabolic Activation: RAT, LIVER, S-9, PCB, Method: PREINCUBATION): active; positive
mutagenic call [1]: active; positive
mutagenic call (Test System: AMES SALMONELLA TYPHIMURIUM, Strain/Indicator: TA98, Metabolic Activation: RAT, LIVER, S-9, PCB, Method: PREINCUBATION): active; positive
mutagenic call (Test System: AMES SALMONELLA TYPHIMURIUM, Strain/Indicator: TA100(1,8-DNP), Metabolic Activation: NONE, Method: PREINCUBATION): active; positive
mutagenic call (Test System: AMES SALMONELLA TYPHIMURIUM, Strain/Indicator: TA100(NR), Metabolic Activation: NONE, Method: PREINCUBATION): active; positive
mutagenic call (Test System: AMES SALMONELLA TYPHIMURIUM, Strain/Indicator: TA100(NR), Metabolic Activation: RAT, LIVER, S-9, PCB, Method: PREINCUBATION): active; positive
mutagenic call [2]: active; positive
mutagenic call (Test System: AMES SALMONELLA TYPHIMURIUM, Strain/Indicator: TA100, Metabolic Activation: RAT, LIVER, S-9, PCB, Method: PREINCUBATION): active; positive
mutagenic call (Test System: AMES SALMONELLA TYPHIMURIUM, Strain/Indicator: YG1020, Metabolic Activation: NONE, Method: PREINCUBATION): active; positive
mutagenic call (Test System: AMES SALMONELLA TYPHIMURIUM, Strain/Indicator: YG1020, Metabolic Activation: RAT, LIVER, S-9, PCB, Method: PREINCUBATION): active; positive
mutagenic call (Test System: AMES SALMONELLA TYPHIMURIUM, Strain/Indicator: YG1021, Metabolic Activation: NONE, Method: PREINCUBATION): active; positive
mutagenic call (Test System: AMES SALMONELLA TYPHIMURIUM, Strain/Indicator: YG1021, Metabolic Activation: RAT, LIVER, S-9, PCB, Method: PREINCUBATION): active; positive
mutagenic call (Test System: AMES SALMONELLA TYPHIMURIUM, Strain/Indicator: YG1024, Metabolic Activation: NONE, Method: PREINCUBATION): active; positive
mutagenic call (Test System: AMES SALMONELLA TYPHIMURIUM, Strain/Indicator: YG1024, Metabolic Activation: RAT, LIVER, S-9, PCB, Method: PREINCUBATION): active; positive
mutagenic call (Test System: AMES SALMONELLA TYPHIMURIUM, Strain/Indicator: YG1025, Metabolic Activation: NONE, Method: PREINCUBATION): active; positive
mutagenic call (Test System: AMES SALMONELLA TYPHIMURIUM, Strain/Indicator: YG1025, Metabolic Activation: RAT, LIVER, S-9, PCB, Method: PREINCUBATION): active; positive
mutagenic call (Test System: AMES SALMONELLA TYPHIMURIUM, Strain/Indicator: YG1026, Metabolic Activation: NONE, Method: PREINCUBATION): active; positive
mutagenic call (Test System: AMES SALMONELLA TYPHIMURIUM, Strain/Indicator: YG1026, Metabolic Activation: RAT, LIVER, S-9, PCB, Method: PREINCUBATION): active; positive
mutagenic call (Test System: AMES SALMONELLA TYPHIMURIUM, Strain/Indicator: YG1029, Metabolic Activation: NONE, Method: PREINCUBATION): active; positive
mutagenic call (Test System: AMES SALMONELLA TYPHIMURIUM, Strain/Indicator: YG1029, Metabolic Activation: RAT, LIVER, S-9, PCB, Method: PREINCUBATION): active; positive

CC(=O)c1cccc(N=[N+]([O-])c2ccc(N)c(C(C)=O)c2C)c1C
mutagenic call [1]: inactive; negative
mutagenic call (Test System: AMES SALMONELLA TYPHIMURIUM, Strain/Indicator: TA98, Metabolic Activation: RAT, LIVER, S-9, PHENOBARBITAL AND 5,6-BENZOFLAVONE, Method: PREINCUBATION): inactive; negative
mutagenic call [2]: inactive; negative
mutagenic call (Test System: AMES SALMONELLA TYPHIMURIUM, Strain/Indicator: TA100, Metabolic Activation: RAT, LIVER, S-9, PHENOBARBITAL AND 5,6-BENZOFLAVONE, Method: PREINCUBATION): inactive; negative

Cc1cc2ncccc2c2ncn(C)c12
mutagenic call [1]: inactive; negative
mutagenic call (Test System: AMES SALMONELLA TYPHIMURIUM, Strain/Indicator: TA98, Metabolic Activation: RAT, LIVER, S-9, AROCLOR 1254, Method: PREINCUBATION): inactive; negative
mutagenic call [2]: inactive; negative
mutagenic call [3]: inactive; negative

Cn1c(N)nc2nc3ncccc3cc21
mutagenic call (Test System: AMES SALMONELLA TYPHIMURIUM, Strain/Indicator: TA98, Metabolic Activation: RAT, LIVER, S-9, AROCLOR 1254A, Method: STANDARD PLATE): inactive; negative
mutagenic call (Test System: AMES SALMONELLA TYPHIMURIUM, Strain/Indicator: YG1024, Metabolic Activation: RAT, LIVER, S-9, AROCLOR 1254A, Method: STANDARD PLATE): active; positive

Cl[Si](Cl)Cl
mutagenic call (Test System: Mouse lymphoma, Strain/Indicator: L5178Y (tk+/tk-), Metabolic Activation: None, Method: Suspension/plate): inactive; negative
mutagenic call (Test System: Mouse lymphoma, Strain/Indicator: L5178Y (tk+/tk-), Metabolic Activation: Rat, Liver, S-9, Aroclor 1254, Method: Suspension/plate): inactive; negative

Cc1ccc2nsc(NC(=O)C(Cl)Cl)c2c1
mutagenic call [4]: active; positive
mutagenic call (Test System: AMES SALMONELLA TYPHIMURIUM, Strain/Indicator: TA98, Metabolic Activation: S-9, Method: STANDARD PLATE): active; positive
mutagenic call [5]: active; positive
mutagenic call (Test System: AMES SALMONELLA TYPHIMURIUM, Strain/Indicator: TA100, Metabolic Activation: S-9, Method: STANDARD PLATE): active; positive
mutagenic call (Test System: AMES SALMONELLA TYPHIMURIUM, Strain/Indicator: TA1535, Metabolic Activation: NONE, Method: STANDARD PLATE): inactive; negative
mutagenic call (Test System: AMES SALMONELLA TYPHIMURIUM, Strain/Indicator: TA1535, Metabolic Activation: S-9, Method: STANDARD PLATE): inactive; negative
mutagenic call (Test System: AMES SALMONELLA TYPHIMURIUM, Strain/Indicator: TA1537, Metabolic Activation: NONE, Method: STANDARD PLATE): active; positive
mutagenic call (Test System: AMES SALMONELLA TYPHIMURIUM, Strain/Indicator: TA1537, Metabolic Activation: S-9, Method: STANDARD PLATE): active; positive

N[C@@H](CCC(=O)NC(CSC(Cl)=C(Cl)Cl)C(=O)NCC(=O)O)C(=O)O (stereo not given in full)
mutagenic call [2]: inactive; negative
mutagenic call (Test System: AMES SALMONELLA TYPHIMURIUM, Strain/Indicator: TA100, Metabolic Activation: RAT, KIDNEY, MICROSOMES, Method: PREINCUBATION): active; positive

CC/C=C/C=C/C=C/C=C/C=C\OC[C@@H](O)CO
mutagenic call [2]: active; positive
mutagenic call [3]: active; positive

OC1c2ccc3cccnc3c2C2OC2C1O (stereo not given)
mutagenic call [5]: active; positive

CC(=O)Nc1ccc(N=Nc2ccc(N(C)C)cc2)cc1
mutagenic call (Test System: AMES SALMONELLA TYPHIMURIUM, Strain/Indicator: TA98, Metabolic Activation: RAT, LIVER, S-9, POLYCHLORINATED BIPHENYLS, Method: PREINCUBATION): active; positive
mutagenic call (Test System: AMES SALMONELLA TYPHIMURIUM, Strain/Indicator: TA100, Metabolic Activation: RAT, LIVER, S-9, POLYCHLORINATED BIPHENYLS, Method: PREINCUBATION): inactive; negative

N#C/C(=C/C=C/c1ccccc1[N+](=O)[O-])c1ccc(Br)cc1
mutagenic call (Test System: AMES SALMONELLA TYPHIMURIUM, Strain/Indicator: TA97A, Metabolic Activation: NONE, Method: STANDARD PLATE): active; positive
mutagenic call [5]: active; positive

Fc1ccccn1
mutagenic call (Test System: AMES SALMONELLA TYPHIMURIUM, Strain/Indicator: TA97, Metabolic Activation: NONE, Method: STANDARD PLATE): inactive; negative
mutagenic call (Test System: AMES SALMONELLA TYPHIMURIUM, Strain/Indicator: TA97, Metabolic Activation: RAT, LIVER, S-9, AROCLOR 1254, Method: STANDARD PLATE): inactive; negative
mutagenic call [4]: inactive; negative
mutagenic call (Test System: AMES SALMONELLA TYPHIMURIUM, Strain/Indicator: TA98, Metabolic Activation: RAT, LIVER, S-9, AROCLOR 1254, Method: STANDARD PLATE): active; positive
mutagenic call [5]: inactive; negative
mutagenic call (Test System: AMES SALMONELLA TYPHIMURIUM, Strain/Indicator: TA100, Metabolic Activation: RAT, LIVER, S-9, AROCLOR 1254, Method: STANDARD PLATE): inactive; negative
mutagenic call (Test System: AMES SALMONELLA TYPHIMURIUM, Strain/Indicator: TA102, Metabolic Activation: NONE, Method: STANDARD PLATE): inactive; negative
mutagenic call (Test System: AMES SALMONELLA TYPHIMURIUM, Strain/Indicator: TA102, Metabolic Activation: RAT, LIVER, S-9, AROCLOR 1254, Method: STANDARD PLATE): inactive; negative
